# Source: patent US20200253877A1, “GEMCABENE, PHARMACEUTICALLY ACCEPTABLE SALTS THEREOF, COMPOSITIONS THEREOF AND METHODS OF USE THEREFOR” (NEUROBO PHARMACEUTICALS, INC., priority 2018, published 2020)
# Tested on: STAM™ mice, a murine model of NASH-HCC
# Assay: Murine STAM model of NASH-HCC: liver histology (H&E, NAFLD Activity Score, Sirius red fibrosis area)
# Assay type: in vivo, mouse
# Set-up: key to NAS (mean ± SD) / NAFLD Activity Score: NAS = unweighted sum of steatosis, lobular inflammation, ballooning scores
# Conditions: for fibrosis area (Sirius red-positive area): all gemcabene Form 1 groups (30, 100, 300 mg/kg); for Lobular Inflammation score 0: number of mice: score 0 = No foci; for Hepatocyte Ballooning score 0: number of mice: score 0 = None; for Steatosis score 1: number of mice: score 1 = 5-33%; for Hepatocyte Ballooning score 1: number of mice: score 1 = Few balloon cells; for Lobular Inflammation score 2: number of mice: score 2 = 2-4 foci/200x; for Hepatocyte Ballooning score 2: number of mice: score 2 = Many cells/prominent ballooning; for Steatosis score 0: number of mice: score 0 = <5%
# Source text: The present invention further provides methods for reducing a fibrosis score or a nonalcoholic fatty liver disease activity score in a subject, comprising administering to a subject in need thereof an effective amount of a tablet of the invention, gemcabene calcium salt hydrate Crystal Form 4, gemcabene calcium salt hydrate Crystal Form 5 or gemcabene calcium salt hydrate Crystal Form 6. The nonalcoholic fatty liver disease activity score (NAS or NAFLD score) is a composite score that measures changes in NAFLD during therapeutic trials. NAS is a composite score comprised of three components that includes scores for steatosis, lobular inflammation and hepatocyte ballooning (Table 36). NAS is the unweighted sum of the scores for steatosis, lobular inflammation and hepatocyte ballooning. Steatosis grade is quantified as the percentage of hepatocytes that contain fat droplets. The fibrosis stage of the liver is evaluated separately from NAS by histological evaluation of the intensity of Sirius red staining of collagen in the pericentral region of liver lobules.
# A study was performed to evaluate the efficacy of gemcabene calcium salt hydrate Crystal Form 1 having a PSD90 of 52 μm as measured by laser light diffraction, in treating non-alcoholic steatosis hepatitis (NASH) in the murine STAM™ model of NASH-HCC.
# Briefly, two-day old neonatal C57BL/6 male mice were administered low-dose streptozotocin (STZ), and were subsequently fed a HFC diet from 4 weeks of age. In this model, the mice typically develop liver steatosis and diabetes, reaching steatohepatitis within 3 weeks, followed by cirrhosis within 8 weeks, and carcinoma within 16 weeks. In the current study, mice were administered daily oral gemcabene calcium salt hydrate Crystal Form 1 starting at week 6 of age and were sacrificed at week 9. […] These STAM™ groups were orally administered from week 6 one of the following: water-vehicle, gemcabene calcium salt hydrate Crystal Form 1 at 30, 100 and 300 mg/kg daily, or telmisartan ([…]®) 10 mg/kg daily. […] All groups were sacrificed at week 9. Vehicle, gemcabene calcium salt hydrate Crystal Form 1, or telmisartan were administered by oral gavage once daily.
# For Hematoxylin and Eosin (H&E) staining, sections were cut from paraffin blocks of liver tissue prefixed in Bouin's solution and stained with Lillie-Mayer's Hematoxylin (Muto Pure Chemicals Co., Ltd., Japan) and eosin solution (Wako Pure Chemical Industries). NAFLD Activity score (NAS) was calculated according to the criteria of Kleiner, D E. Et al., Hepatology, 2005; 41:1313-1321. To visualize collagen deposition, Bouin's fixed liver sections were stained using picro-Sirius red solution (Waldeck, Germany). For Masson Trichrome staining, the sections were stained with Masson's Trichrome staining Kit (Sigma, USA) according to the manufacturer's instructions.
# For quantitative analysis of fibrosis area, bright field images of Sirius red-stained sections were captured around the central vein using a digital camera (DFC295; Leica, Germany) at 200-fold magnification, and the positive areas in 5 fields/section were measured using ImageJ software (National Institute of Health, USA). Samples were analyzed in a blinded fashion.
# [1] = vs vehicle-treated STAM mice, telmisartan 10 mg/kg
# [2] = vs vehicle-treated STAM mice, gemcabene Form 1 30 and 300 mg/kg, telmisartan 10 mg/kg
smiles,measurement,setting,value
"CC(C)(CCCCOCCCCC(C)(C)C(=O)O)C(=O)O.[Ca] [6-(5-Carboxy-5-methyl-hexyloxy)-2,2-dimethylhexanoic acid calcium]","micro- and macro-vesicular hepatic fat deposition, hepatocellular ballooning and inflammatory cell infiltration (H&E)",STAM mice,diminished
same,fibrosis area (Sirius red-positive area),[1],significant decreases
same,NAFLD Activity Score (NAS),"vs vehicle-treated STAM mice, gemcabene Form 1 100 mg/kg (trending lower)",no significant difference
same,steatosis score and ballooning score,"vs vehicle-treated STAM mice, gemcabene Form 1 300 mg/kg",significant decrease
same,NAFLD Activity Score (NAS),[2],significant reduction
same,lobular inflammation and ballooning scores,[2],lower
same,steatosis (H&E-stained liver sections),[2],less steatosis
"CC(C)(CCCCOCCCCC(C)(C)C(=O)O)C(=O)O [gemcabene, 6-(5-carboxy-5-methyl-hexyloxy)-2,2-dimethyl-hexanoic acid]",Lobular Inflammation score 1: number of mice,"30 mg/kg PO QD, n = 8",2
same,NAS (mean ± SD),"30 mg/kg PO QD, n = 8",3.4 ± 1.1
same,Lobular Inflammation score 0: number of mice,"30 mg/kg PO QD, n = 8",1
same,Hepatocyte Ballooning score 0: number of mice,"30 mg/kg PO QD, n = 8",4
same,Steatosis score 1: number of mice,"30 mg/kg PO QD, n = 8",8
same,Hepatocyte Ballooning score 1: number of mice,"30 mg/kg PO QD, n = 8",2
same,Lobular Inflammation score 2: number of mice,"30 mg/kg PO QD, n = 8",4
same,Hepatocyte Ballooning score 2: number of mice,"30 mg/kg PO QD, n = 8",2
same,Lobular Inflammation score 3: number of mice,"30 mg/kg PO QD, n = 8, score 3 = >4 foci/200x",1
same,NAFLD Activity Score,"30 mg/kg, STAM mice",3.4
same,Sirius red-positive area,"30 mg/kg, STAM mice",0.56%
same,Lobular Inflammation score 1: number of mice,"100 mg/kg PO QD, n = 8",1
same,NAS (mean ± SD),"100 mg/kg PO QD, n = 8",3.6 ± 1.4
same,Lobular Inflammation score 0: number of mice,"100 mg/kg PO QD, n = 8",2
same,Hepatocyte Ballooning score 0: number of mice,"100 mg/kg PO QD, n = 8",1
same,Steatosis score 1: number of mice,"100 mg/kg PO QD, n = 8",8
same,Hepatocyte Ballooning score 1: number of mice,"100 mg/kg PO QD, n = 8",4
same,Lobular Inflammation score 2: number of mice,"100 mg/kg PO QD, n = 8",5
same,Hepatocyte Ballooning score 2: number of mice,"100 mg/kg PO QD, n = 8",3
same,NAFLD Activity Score,"100 mg/kg, STAM mice",3.6
same,Sirius red-positive area,"100 mg/kg, STAM mice",0.53%
same,Lobular Inflammation score 1: number of mice,"300 mg/kg PO QD, n = 8",2
same,NAS (mean ± SD),"300 mg/kg PO QD, n = 8",2.5 ± 0.8
same,Steatosis score 0: number of mice,"300 mg/kg PO QD, n = 8",3
same,Lobular Inflammation score 0: number of mice,"300 mg/kg PO QD, n = 8",2
same,Hepatocyte Ballooning score 0: number of mice,"300 mg/kg PO QD, n = 8",4
same,Steatosis score 1: number of mice,"300 mg/kg PO QD, n = 8",5
same,Hepatocyte Ballooning score 1: number of mice,"300 mg/kg PO QD, n = 8",3
same,Lobular Inflammation score 2: number of mice,"300 mg/kg PO QD, n = 8",4
same,Hepatocyte Ballooning score 2: number of mice,"300 mg/kg PO QD, n = 8",1
same,NAFLD Activity Score,"300 mg/kg, STAM mice",2.5
same,Sirius red-positive area,"300 mg/kg, STAM mice",0.59%
"CCCc1nc2c(C)cc(-c3nc4ccccc4n3C)cc2n1Cc1ccc(-c2ccccc2C(=O)O)cc1 [telmisartan, reference compound]",Lobular Inflammation score 1: number of mice,"10 mg/kg PO QD, n = 7",4
same,NAS (mean ± SD),"10 mg/kg PO QD, n = 7",2.6 ± 1.0
same,Steatosis score 0: number of mice,"10 mg/kg PO QD, n = 7",1
same,Lobular Inflammation score 0: number of mice,"10 mg/kg PO QD, n = 7",2
same,Hepatocyte Ballooning score 0: number of mice,"10 mg/kg PO QD, n = 7",2
same,Steatosis score 1: number of mice,"10 mg/kg PO QD, n = 7",6
same,Hepatocyte Ballooning score 1: number of mice,"10 mg/kg PO QD, n = 7",4
same,Lobular Inflammation score 2: number of mice,"10 mg/kg PO QD, n = 7",1
same,Hepatocyte Ballooning score 2: number of mice,"10 mg/kg PO QD, n = 7",1
same,NAFLD Activity Score,"10 mg/kg, STAM mice",2.6
same,Sirius red-positive area,"10 mg/kg, STAM mice",0.48%
same,fibrosis area (Sirius red-positive area),[1],significant decreases
same,NAFLD Activity Score (NAS),[2],significant reduction
same,lobular inflammation and ballooning scores,[2],lower
same,steatosis (H&E-stained liver sections),[2],less steatosis
